Experimental data reported in US9056858B2, “Indazole and pyrazolopyridine compounds as CCR1 receptor antagonists” (Boehringer Ingelheim International GmbH, priority 2009, dated 2015).

Target: T1, CCR1 (Homo sapiens, UniProt P32246)
T1 construct: host or cells: Non-adherent cells
T1 sequence (P32246 1-355): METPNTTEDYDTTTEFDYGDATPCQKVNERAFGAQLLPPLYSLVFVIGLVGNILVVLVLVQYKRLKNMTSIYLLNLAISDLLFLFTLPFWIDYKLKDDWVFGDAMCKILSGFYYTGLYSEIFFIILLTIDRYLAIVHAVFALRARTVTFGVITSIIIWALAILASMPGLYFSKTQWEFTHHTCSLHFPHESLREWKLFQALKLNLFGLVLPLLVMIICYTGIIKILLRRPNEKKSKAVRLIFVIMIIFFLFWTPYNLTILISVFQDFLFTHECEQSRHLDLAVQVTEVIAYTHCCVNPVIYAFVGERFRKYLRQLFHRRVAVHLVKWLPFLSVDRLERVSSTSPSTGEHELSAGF
Experiment: functional cellular assay measuring calcium flux in CCR1 transfected cells (block of CCR1/MIP-1α interaction)
Assay type: cell-based
Conditions: cells stably expressing recombinant CCR1 and G-alpha-16, MIP-1alpha added at EC80
Protocol: Compounds are assessed for the ability to block the interaction of CCR1 and MIP-1α in a functional cellular assay measuring calcium flux in CCR1 transfected cells.
Non-adherent cells purchased from Chemicon Corporation (HTS005C), stably expressing recombinant CCR1 and G-alpha-16 are grown in RPMI 1640 medium (Mediatech 10-080-CM) supplemented with 10% FBS, 0.4 mg/mL Geneticin and penicillin/streptomycin. On the day of the assay, the cells are loaded with Calcium 4 dye (Molecular Devices R7448) with Probenecid (Invitrogen P346400) at 8E5 cells/mL for 1 hour at room temperature. After 1 hour, they are seeded in a 384-well tissue culture-treated plate at a density of 20,000 cells/well. Appropriately diluted test compound is added to the well to achieve a top concentration of 3,000 nM (diluted 4-fold with 10 doses total). The final concentration of DMSO is 1%. The buffer is HBSS (Invitrogen 14025) with 20 mM HEPES at pH 7.4. The cells incubate 30 minutes at 37 C and then 30 minutes at room temperature. The plates are transferred to the […] FDSS6000 where MIP-1alpha in 1% BSA is added at the EC80 final concentration. All plates must be read within 4 hours of the start of dye-loading. Wells +/− MIP-1alpha containing diluted DMSO instead of compound serve as the controls. Data are analyzed using Activity Base software.

Structure (SMILES)	IC50
CS(=O)(=O)c1cc(C2(NC(=O)c3cccc4c3cnn4-c3ccc(F)cc3)CC2)ccn1 [1-(4-Fluoro-phenyl)-1H-indazole-4-carboxylic acid [1-(2-methanesulfonyl-pyridin-4-yl)-cyclopropyl]-amide]	4 nM
O=C(NC1(c2nncs2)CC1)c1cncc2c1cnn2-c1ccc(F)cc1 [1-(4-Fluoro-phenyl)-1H-pyrazolo[3,4-c]pyridine-4-carboxylic acid (1-1,3,4-thiadiazol-2-yl-cyclopropyl)-amide]	265 nM
Cc1cccc(C2(NC(=O)c3cncc4c3cnn4-c3ccc(F)cc3)CC2)c1 [1-(4-Fluoro-phenyl)-1H-pyrazolo[3,4-c]pyridine-4-carboxylic acid (1-m-tolyl-cyclopropyl)-amide]	26 nM
Cc1ccccc1C1(NC(=O)c2cncc3c2cnn3-c2ccc(F)cc2)CC1 [1-(4-Fluoro-phenyl)-1H-pyrazolo[3,4-c]pyridine-4-carboxylic acid (1-o-tolyl-cyclopropyl)-amide]	61 nM
Cc1ccc(C2(NC(=O)c3cncc4c3cnn4-c3ccc(F)cc3)CC2)cc1 [1-(4-Fluoro-phenyl)-1H-pyrazolo[3,4-c]pyridine-4-carboxylic acid (1-p-tolyl-cyclopropyl)-amide]	14 nM
O=C(NC1(c2ccccc2)CC1)c1cncc2c1cnn2-c1ccc(F)cc1 [1-(4-Fluoro-phenyl)-1H-pyrazolo[3,4-c]pyridine-4-carboxylic acid (1-phenyl-cyclopropyl)-amide]	109 nM
O=C(NC1(c2cccnc2)CC1)c1cncc2c1cnn2-c1ccc(F)cc1 [1-(4-Fluoro-phenyl)-1H-pyrazolo[3,4-c]pyridine-4-carboxylic acid (1-pyridin-3-yl-cyclopropyl)-amide]	88 nM
O=C(NC1(c2ccncc2)CC1)c1cncc2c1cnn2-c1ccc(F)cc1 [1-(4-Fluoro-phenyl)-1H-pyrazolo[3,4-c]pyridine-4-carboxylic acid (1-pyridin-4-yl-cyclopropyl)-amide]	18 nM
O=C(NC1(c2ccnc(Br)c2)CCC1)c1cncc2c1cnn2-c1ccc(F)cc1 [1-(4-Fluoro-phenyl)-1H-pyrazolo[3,4-c]pyridine-4-carboxylic acid [1-(2-bromo-pyridin-4-yl)-cyclobutyl]-amide]	3 nM
O=C(NC1(c2ccnc(Br)c2)CC1)c1cncc2c1cnn2-c1ccc(F)cc1 [1-(4-Fluoro-phenyl)-1H-pyrazolo[3,4-c]pyridine-4-carboxylic acid [1-(2-bromo-pyridin-4-yl)-cyclopropyl]-amide]	0.5 nM
Cc1nc(C2(NC(=O)c3cncc4c3cnn4-c3ccc(F)cc3)CC2)cs1 [1-(4-Fluoro-phenyl)-1H-pyrazolo[3,4-c]pyridine-4-carboxylic acid [1-(2-methyl-thiazol-4-yl)-cyclopropyl]-amide]	99 nM
O=C(NC1(c2cccc(Br)c2)CC1)c1cncc2c1cnn2-c1ccc(F)cc1 [1-(4-Fluoro-phenyl)-1H-pyrazolo[3,4-c]pyridine-4-carboxylic acid [1-(3-bromo-phenyl)-cyclopropyl]-amide]	1 nM
NC(=O)c1cccc(C2(NC(=O)c3cncc4c3cnn4-c3ccc(F)cc3)CC2)c1 [1-(4-Fluoro-phenyl)-1H-pyrazolo[3,4-c]pyridine-4-carboxylic acid [1-(3-carbamoyl-phenyl)-cyclopropyl]-amide]	40 nM
O=C(NC1(c2cccc(Cl)c2)CC1)c1cncc2c1cnn2-c1ccc(F)cc1 [1-(4-Fluoro-phenyl)-1H-pyrazolo[3,4-c]pyridine-4-carboxylic acid [1-(3-chloro-phenyl)-cyclopropyl]-amide]	3 nM
O=C(NC1(c2nc(C3CC3)no2)CC1)c1cncc2c1cnn2-c1ccc(F)cc1 [1-(4-Fluoro-phenyl)-1H-pyrazolo[3,4-c]pyridine-4-carboxylic acid [1-(3-cyclopropyl-1,2,4-oxadiazol-5-yl)-cyclopropyl]-amide]	11 nM
O=C(NC1(c2cccc(F)c2)CC1)c1cncc2c1cnn2-c1ccc(F)cc1 [1-(4-Fluoro-phenyl)-1H-pyrazolo[3,4-c]pyridine-4-carboxylic acid [1-(3-fluoro-phenyl)-cyclopropyl]-amide]	13 nM
CS(=O)(=O)c1cccc(C2(NC(=O)c3cncc4c3cnn4-c3ccc(F)cc3)CC2)c1 [1-(4-Fluoro-phenyl)-1H-pyrazolo[3,4-c]pyridine-4-carboxylic acid [1-(3-methanesulfonyl-phenyl)-cyclopropyl]-amide]	1 nM
COc1cccc(C2(NC(=O)c3cncc4c3cnn4-c3ccc(F)cc3)CC2)c1 [1-(4-Fluoro-phenyl)-1H-pyrazolo[3,4-c]pyridine-4-carboxylic acid [1-(3-methoxy-phenyl)-cyclopropyl]-amide]	5 nM
CNC(=O)c1cccc(C2(NC(=O)c3cncc4c3cnn4-c3ccc(F)cc3)CC2)c1 [1-(4-Fluoro-phenyl)-1H-pyrazolo[3,4-c]pyridine-4-carboxylic acid [1-(3-methylcarbamoyl-phenyl)-cyclopropyl]-amide]	2 nM
NS(=O)(=O)c1cccc(C2(NC(=O)c3cncc4c3cnn4-c3ccc(F)cc3)CC2)c1 [1-(4-Fluoro-phenyl)-1H-pyrazolo[3,4-c]pyridine-4-carboxylic acid [1-(3-sulfamoyl-phenyl)-cyclopropyl]-amide]	3 nM
O=C(NC1(c2cccc(C(F)(F)F)c2)CC1)c1cncc2c1cnn2-c1ccc(F)cc1 [1-(4-Fluoro-phenyl)-1H-pyrazolo[3,4-c]pyridine-4-carboxylic acid [1-(3-trifluoromethyl-phenyl)-cyclopropyl]-amide]	0.4 nM
NCc1ccnc(C2(NC(=O)c3cncc4c3cnn4-c3ccc(F)cc3)CC2)c1 [1-(4-Fluoro-phenyl)-1H-pyrazolo[3,4-c]pyridine-4-carboxylic acid [1-(4-aminomethyl-pyridin-2-yl)-cyclopropyl]-amide]	290 nM
O=C(NC1(c2ccc(Br)cc2)CC1)c1cncc2c1cnn2-c1ccc(F)cc1 [1-(4-Fluoro-phenyl)-1H-pyrazolo[3,4-c]pyridine-4-carboxylic acid [1-(4-bromo-phenyl)-cyclopropyl]-amide]	4 nM
O=C(NC1(c2ccc(Cl)cc2)CC1)c1cncc2c1cnn2-c1ccc(F)cc1 [1-(4-Fluoro-phenyl)-1H-pyrazolo[3,4-c]pyridine-4-carboxylic acid [1-(4-chloro-phenyl)-cyclopropyl]-amide]	10 nM
O=C(NC1(c2cc(Cl)ccn2)CC1)c1cncc2c1cnn2-c1ccc(F)cc1 [1-(4-Fluoro-phenyl)-1H-pyrazolo[3,4-c]pyridine-4-carboxylic acid [1-(4-chloro-pyridin-2-yl)-cyclopropyl]-amide]	17 nM
O=C(NC1(c2ccc(F)cc2)CCC1)c1cncc2c1cnn2-c1ccc(F)cc1 [1-(4-Fluoro-phenyl)-1H-pyrazolo[3,4-c]pyridine-4-carboxylic acid [1-(4-fluoro-phenyl)-cyclobutyl]-amide]	62 nM
O=C(NC1(c2ccc(F)cc2)CC1)c1cncc2c1cnn2-c1ccc(F)cc1 [1-(4-Fluoro-phenyl)-1H-pyrazolo[3,4-c]pyridine-4-carboxylic acid [1-(4-fluoro-phenyl)-cyclopropyl]-amide]	75 nM
O=C(NC1(c2cc(I)ccn2)CC1)c1cncc2c1cnn2-c1ccc(F)cc1 [1-(4-Fluoro-phenyl)-1H-pyrazolo[3,4-c]pyridine-4-carboxylic acid [1-(4-iodo-pyridin-2-yl)-cyclopropyl]-amide]	2 nM
